Read-outs that look alike come from different tables or passages of the source.
How the values were obtained:
CAIX = target: T1, CAIX (Homo sapiens, UniProt Q16790); experiment: Affinity determination of CAIX ligands by fluorescence polarization; assay type: binding; conditions: PBS pH 7.4, 22° C., 1 h; read-out: Kd by fluorescence polarization in solution
T1 construct: His6; made in house
Protocol: Fluorescein labelled ligands (5 nM diluted with PBS from DMSO stocks, final DMSO content adjusted to 0.001%) were incubated at 22° C. for 1 h in a black 384-well plate (Greiner, non-binding) in PBS (pH 7.4) with increasing concentrations of CAIX to a final volume of 60 μl. The fluorescence anisotropy was measured on a Spectra Max Paradigm multimode plate reader (Molecular Devices). Experiments were performed in triplicate and the mean anisotropy values fitted to the following equation using KaleidaGraph 4.1.3 (Synergy Software),
[formula] where A is the anisotropy, [P]0 the total protein concentration, [L]0 the total concentration of the fluorescently labelled ligand and KD the dissociation constant.

[1] = system: CAIX expressing SKRC52 cells; experiment: Ligand binding analysis by flow cytometry, SKRC52; assay type: cell-based, human; conditions: 30 nM dye conjugate, 1 h at 0° C., washed
Protocol: Cells were detached from culture plates using a 50 mM EDTA solution in phosphate buffered saline (PBS) pH 7.4, counted and suspended to a final concentration of 1.5×10^6 cells mL^−1 in a 1% v/v solution of FCS in PBS pH 7.4. Aliquots of 3×10^5 cells (200 μL) were spun down and resuspended in solutions of IRDye750 (Licor) labeled ligands (30 nM) in a 1% v/v solution of FCS in PBS pH 7.4 (200 μL) and incubated on ice for 1 h. Cells were washed once with 200 μL 1% v/v solution of FCS in PBS pH 7.4 (200 μL), spun down, resuspended in 1% v/v solution of FCS in PBS pH 7.4 (300 μL) and analyzed on a FACS Canto flow cytometer (BD Bioscience). FlowJo Version 8.7 (Treestar) was used for data analysis and visualization. Results were as follows: • (1) Flow cytometry analysis of binding of ligand-IRDye750 conjugates 1c-6c (FIG. 1) to CAIX expressing SKRC52 cells.
Flow cytometry was performed as described above with monovalent and bivalent near infrared dye conjugates B3 and B4 and negative control conjugates lacking the ligand on CAIX-positive SKRC52 cells and CAIX-negative HEK cells^5.

in vivo = conditions: balb/c nu/nu, mouse, iv
Protocol: (§1) After 1 h, 2 h or 4 h animals were sacrificed, organs extracted as above, cut into small pieces, weighed and suspended in 1:1 w/v organ homogenization buffer containing EDTA (40 mM), proteinase K (6 mg/ml), Triton X-100 (1.6 μl/ml) and trace amounts of DNase 1 in PBS pH 7.4 (100 μL per 100 mg of tissue). The suspension was homogenized on a TissueLyser organ homogenizer (Quiagen, 25 Hz, 10 min), incubated for 2 h at room temperature and 100 μL of the homogenate transferred to a black 96-well plate. […] Fluorescent images of plates were recorded on an IVIS Spectrum imaging system (Xenogen, parameters as above) and analyzed using Living Image software version 4.3.1 (Caliper Life Science) using the built-in region of interest (ROI) tools. Dye concentrations in organ samples in % of injected dose per gram of tissue (% ID g^−1) were inferred from fluorescence intensities originating from the corresponding well by comparison with the standard dilution series.

[2] = system: subcutaneous SKRC52 tumors; conditions: mouse, in vivo
Protocol: as §1

[3] = system: CAIX positive SKRC52 cells; experiment: Ligand internalization analysis by flow cytometry, SKRC52; assay type: cell-based, human
Protocol: SKRC52 or A549 cells were seeded in 6-well plates in their appropriate culture medium (2 mL) at a density of 1.5×10^5 cells per well and allowed to grow for 24 h under culture conditions. The medium was replaced with medium containing IRDye750 (Licor) labeled probes 1c or 6c (2 mL, 30 nM) and plates incubated for 1, 2 or 4 h under standard culture conditions. After washing with PBS pH 7.4 (2×2 mL), Trypsin-EDTA 0.05% (500 μL, Invitrogen) was added and plates incubated under standard culture conditions for 15 min Medium (500 μL) was added, cells pelleted and resuspended in PBS pH 7.4 containing 1% v/v FCS (150 μL). After incubating for 15 min on ice, cells were labeled for 30 min on ice with rabbit anti human CAIX IgG (1:100, Santa Cruz) in PBS pH 7.4 containing 1% FCS (150 μL), washed with PBS pH 7.4 containing 1% FCS (2×150 μL) and labeled for 30 min on ice with goat anti rabbit IgG Alexa488 conjugate (1:100, Invitrogen) in PBS pH 7.4 containing 1% FCS (150 μL). After washing with PBS pH 7.4 containing 1% FCS (2×150 μL), cells were pelleted and resuspended in PBS pH 7.4 containing 1% v/v FCS and propidium iodide (300 μL, 1 μg mL^−1, Invitrogen) and analyzed on a FACS Canto flow cytometer (BD Bioscience). FlowJo Version 8.7 (Treestar) was used for data analysis and visualization. To inhibit uptake mechanisms, cells were pre-incubated with medium containing 0.2% NaN3 for 1 h and the NaN3 concentration maintained throughout the entire experiment. Alternatively, all steps were performed at 0° C. or an excess of AAZ (100 μM) was added to the culture medium.

[4] = system: subcutaneous SKRC52 tumors
Protocol: SKRC52 cells were grown to 80% confluence and detached with Trypsin-EDTA 0.05% (Invitrogen). Cells were washed with PBS pH 7.4 once, counted and resuspended in PBS to a final concentration of 6.7×10^7 cells mL^−1. Athymic balb/c nu/nu mice, 8-10 weeks of age (Charles River) were anesthetized with isofluorane and aliquots of 1×10^7 cells (150 μL of suspension) injected subcutaneously into their lower back.
Food and water was given ad libitum during that period.
Mice were subsequently sacrificed by cervical dislocation.

SMILES	Kd (CAIX)	binding to SKRC52 cells (fluorescence shift) [1]	half-life (in vivo)	tumor to heart ratio [2]	tumor-to-blood ratio [2]	tumor-to-organ ratio, kidneys [2]	tumor-to-organ ratio, liver [2]	tumor-to-blood ratio ([2]; iv)	internalization with extended incubation time ([3]; 30 nM at 37° C., 2 h and 4 h versus 1 h)	internalization under conditions inhibiting uptake ([3]; 30 nM, 0.2% w/v NaN3, same with excess AAZ or at 0° C.)	internalization: fluorescence after trypsin detachment ([3]; 30 nM, 1 h at 37° C.)	tumor visibility by near infrared imaging ([4]; 1 nmol intravenous, 1 h)	tumor targeting by near infrared imaging ([4]; 3 nmol intravenous, 1-12 h)
CC(CCC(=O)N[C@@H](CC(=O)N[C@@H](CC(=O)N[C@@H](CCCCn1cc(CCCC(=O)Nc2nnc(S(N)(=O)=O)s2)nn1)C(=O)NCCOCCOCCN)C(=O)O)C(=O)O)(c1ccc(O)cc1)c1ccc(O)cc1 [Compound C5a, N-[4,4-bis(4-hydroxyphenyl)pentanoyl]-β-aspartyl-β-aspartyl-N-{2-[2-(2-aminoethoxy)ethoxy]ethyl}-6-(4-{4-oxo-4-[(5-sulfamoyl-1,3,4-thiadiazol-2-yl)amino]butyl}-1H-1,2,3-triazol-1-yl)-L-norleucinamide]	0.2 ± 0.1 nM	–	–	–	–	–	–	–	–	–	–	–	–
CC1(C)C(/C=C/C2=C(c3ccc(CCCCC(=O)NCCOCCOCCNC(=O)CCC(=O)Nc4nnc(S(N)(=O)=O)s4)cc3)C(=C/C=C3/N(CCCCS(=O)(=O)O)c4ccc(S(=O)(=O)[O-])cc4C3(C)C)/CCC2)=[N+](CCCCS(=O)(=O)O)c2ccc(S(=O)(=O)O)cc21 [Compound 1c, N1-(2-(2-(2-aminoethoxy)ethoxy)ethyl)-N4-(5-sulfamoyl-1,3,4-thiadiazol-2-yl)succinamide IRDye750 conjugate]	–	binds strongly enough to result in a strong fluorescence shift after washing of cells	~1 h	27.6:1	79.2:1	1.4:1	0.2:1	13.8:1	did not see a markedly increased signal	fluorescent signal was shifted to baseline	higher fluorescence intensity than cells treated with non-binding conjugate 6c or untreated cells	the tumor could clearly be seen against background	gave good tumor to background contrast

Source: patent US9884122B2, “Small molecule drug conjugates” (Philochem AG, priority 2014, dated 2018)
